Assay results published in PubChem BioAssay AID248 (DTP/NCI, 2004).
Values joined by “and” are separate entries in the source; they are usually repeats but may differ in a detail not shown here. Equal entries are not always repeated. Inconclusive results and toxic doses are left out. No stated cut-off is given here; in the data, active means T/C of 150% or more; inactive means T/C below 125%.

Test system: L1210 leukemia ip in BDF1 mice, survival T/C
Assay: NCI In Vivo Anticancer Drug Screen. Data for tumor model L1210 Leukemia (intraperitoneal) in B6D2F1 (BDF1) mice
Settings: endpoint: mean survival time, higher = longer survival
Summary of the method: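 Survival endpoint. Drug-treated group vs vehicle group, expressed as T divided by C. Tumor passaged by transplantation.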

[1] = dose: 50.0 mg/kg/injection, schedule: Q04DX003 (ip), vehicle: Klucel (hydroxypropylcellulose) (HPC)
[2] = dose: 100.0 mg/kg/injection, schedule: Q04DX003 (ip), vehicle: Klucel (hydroxypropylcellulose) (HPC)
[3] = dose: 100.0 mg/kg/injection, schedule: Q01DX001 (ip), vehicle: saline
[4] = dose: 100.0 mg/kg/injection, schedule: Q04DX003 (ip), vehicle: saline
[5] = dose: 200.0 mg/kg/injection, schedule: Q01DX001 (ip), vehicle: saline
[6] = dose: 200.0 mg/kg/injection, schedule: Q04DX003 (ip), vehicle: saline
[7] = dose: 400.0 mg/kg/injection, schedule: Q01DX001 (ip), vehicle: saline
[8] = dose: 400.0 mg/kg/injection, schedule: Q04DX003 (ip), vehicle: saline
[9] = dose: 100.0 mg/kg/injection, schedule: Q04DX003 (ip), vehicle: saline with Tween-80
[10] = dose: 200.0 mg/kg/injection, schedule: Q04DX003 (ip), vehicle: saline with Tween-80
[11] = dose: 100.0 mg/kg/injection, schedule: Q04DX002 (ip), vehicle: saline with Tween-80
[12] = dose: 200.0 mg/kg/injection, schedule: Q04DX002 (ip), vehicle: saline with Tween-80
[13] = dose: 400.0 mg/kg/injection, schedule: Q04DX002 (ip), vehicle: saline with Tween-80
[14] = dose: 100.0 mg/kg/injection, schedule: Q04DX002 (ip), vehicle: Klucel (hydroxypropylcellulose) (HPC)
[15] = dose: 200.0 mg/kg/injection, schedule: Q04DX002 (ip), vehicle: Klucel (hydroxypropylcellulose) (HPC)
[16] = dose: 400.0 mg/kg/injection, schedule: Q04DX002 (ip), vehicle: Klucel (hydroxypropylcellulose) (HPC)

Measured: T/C

COc1ccc2c(c1OC)C13CCCCC1C(C2)[N+](C)(C)CC3 (stereo not drawn)
inactive: dose: 12.5 mg/kg/injection, schedule: Q04DX003 (ip), vehicle: Klucel (hydroxypropylcellulose) (HPC) 100 % of control and 91 % of control | dose: 25.0 mg/kg/injection, schedule: Q01DX009 (ip), vehicle: Klucel (hydroxypropylcellulose) (HPC) 100 % of control | dose: 25.0 mg/kg/injection, schedule: Q04DX003 (ip), vehicle: Klucel (hydroxypropylcellulose) (HPC) 94 % of control and 106 % of control | dose: 50.0 mg/kg/injection, schedule: Q01DX009 (ip), vehicle: Klucel (hydroxypropylcellulose) (HPC) 89 % of control | [1] 96 % of control and 88 % of control | [2] 98 % of control

O=C(O)CNc1cc(S(=O)(=O)O)cc2cc(S(=O)(=O)O)cc(O)c12
inactive: [3] 103 % of control | [4] 103 % of control | [5] 107 % of control | [6] 90 % of control | [7] 96 % of control | [8] 92 % of control

O=C(CNCc1ccccc1)c1ccc(Cl)cc1
inactive: dose: 50.0 mg/kg/injection, schedule: Q01DX001 (ip), vehicle: Klucel (hydroxypropylcellulose) (HPC) 93 % of control | dose: 100.0 mg/kg/injection, schedule: Q01DX001 (ip), vehicle: Klucel (hydroxypropylcellulose) (HPC) 96 % of control | dose: 200.0 mg/kg/injection, schedule: Q01DX001 (ip), vehicle: Klucel (hydroxypropylcellulose) (HPC) 93 % of control | dose: 400.0 mg/kg/injection, schedule: Q01DX001 (ip), vehicle: Klucel (hydroxypropylcellulose) (HPC) 93 % of control

O=C(OC(c1ccccc1)c1ccccc1)C(=O)c1ccccc1
inactive: [9] 92 % of control | [10] 89 % of control | dose: 400.0 mg/kg/injection, schedule: Q04DX003 (ip), vehicle: saline with Tween-80 92 % of control

C[N+](C)(C)C1CCCCCCC1
inactive: dose: 75.0 mg/kg/injection, schedule: Q01DX001 (ip), vehicle: saline 96 % of control | dose: 150.0 mg/kg/injection, schedule: Q01DX001 (ip), vehicle: saline 108 % of control

CC(=O)NC1C(OCc2ccccc2)OC(COC(c2ccccc2)(c2ccccc2)c2ccccc2)C(OS(=O)(=O)c2ccc(C)cc2)C1OCc1ccccc1 (stereo not drawn)
inactive: dose: 100.0 mg/kg/injection, schedule: Q01DX001 (ip), vehicle: saline with Tween-80 100 % of control | dose: 200.0 mg/kg/injection, schedule: Q01DX001 (ip), vehicle: saline with Tween-80 86 % of control | dose: 400.0 mg/kg/injection, schedule: Q01DX001 (ip), vehicle: saline with Tween-80 100 % of control

CC(=O)OCCC/C(=C/c1cc2ccccc2c2ccccc12)[N+](=O)[O-]
inactive: dose: 100.0 mg/kg/injection, schedule: Q01DX001 (ip), vehicle: carboxymethylcellulose (CMC) 95 % of control | dose: 200.0 mg/kg/injection, schedule: Q01DX001 (ip), vehicle: carboxymethylcellulose (CMC) 95 % of control | dose: 400.0 mg/kg/injection, schedule: Q01DX001 (ip), vehicle: carboxymethylcellulose (CMC) 97 % of control

CCC(Cl)COP(=O)(OCC(Cl)CC)O/C(C)=C(/C)P(=O)(OCC(Cl)CC)OCC(Cl)CC (stereo not drawn)
inactive: [11] 104 % of control | [12] 96 % of control | [13] 100 % of control

CS(=O)(=O)OCCN1C(=O)NC(c2ccccc2)(c2ccccc2)C1=O
inactive: [3] 94 % of control | dose: 100.0 mg/kg/injection, schedule: Q01DX009 (ip), vehicle: saline 97 % of control | [4] 107 % of control | [5] 94 % of control | dose: 200.0 mg/kg/injection, schedule: Q01DX009 (ip), vehicle: saline 96 % of control | [6] 93 % of control | [7] 100 % of control | dose: 400.0 mg/kg/injection, schedule: Q01DX009 (ip), vehicle: saline 97 % of control | [8] 101 % of control

NC(N)=N/N=C/c1ccc(C(=O)O)cc1
inactive: dose: 15.0 mg/kg/injection, schedule: Q01DX Z (ip), vehicle: saline 103 % of control | dose: 30.0 mg/kg/injection, schedule: Q01DX Z (ip), vehicle: saline 104 % of control | dose: 60.0 mg/kg/injection, schedule: Q01DX Z (ip), vehicle: saline 106 % of control | dose: 120.0 mg/kg/injection, schedule: Q01DX Z (ip), vehicle: saline 110 % of control | dose: 120.0 mg/kg/injection, schedule: Q01DX Z (oral), vehicle: saline 92 % of control | dose: 240.0 mg/kg/injection, schedule: Q01DX Z (ip), vehicle: saline 87 % of control | dose: 240.0 mg/kg/injection, schedule: Q01DX Z (oral), vehicle: saline 90 % of control | dose: 480.0 mg/kg/injection, schedule: Q01DX Z (oral), vehicle: saline 101 % of control | dose: 960.0 mg/kg/injection, schedule: Q01DX Z (oral), vehicle: saline 92 % of control

CS(=O)(=O)Nc1ccccc1-c1nc2ccccc2c(=O)o1
inactive: dose: 50.0 mg/kg/injection, schedule: Q04DX002 (ip), vehicle: Klucel (hydroxypropylcellulose) (HPC) 98 % of control | [14] 98 % of control | [15] 98 % of control | [16] 92 % of control

CCN(CC)CCOC(=O)Nc1ccccc1
inactive: dose: 50.0 mg/kg/injection, schedule: Q04DX003 (ip), vehicle: saline 98 % of control | [4] 90 % of control

O=C(O)COc1ccccc1C(=O)O
inactive: dose: 5.0 mg/kg/injection, schedule: Q01DX001 (ip), vehicle: saline 100 % of control | dose: 10.0 mg/kg/injection, schedule: Q01DX001 (ip), vehicle: saline 100 % of control | dose: 20.0 mg/kg/injection, schedule: Q01DX001 (ip), vehicle: saline 96 % of control | dose: 20.0 mg/kg/injection, schedule: Q04DX002 (ip), vehicle: Klucel (hydroxypropylcellulose) (HPC) 88 % of control | dose: 40.0 mg/kg/injection, schedule: Q01DX001 (ip), vehicle: saline 96 % of control | dose: 40.0 mg/kg/injection, schedule: Q04DX002 (ip), vehicle: Klucel (hydroxypropylcellulose) (HPC) 98 % of control | dose: 80.0 mg/kg/injection, schedule: Q04DX002 (ip), vehicle: Klucel (hydroxypropylcellulose) (HPC) 100 % of control | dose: 100.0 mg/kg/injection, schedule: Q01DX009 (ip), vehicle: Klucel (hydroxypropylcellulose) (HPC) 89 % of control | [14] 95 % of control | dose: 200.0 mg/kg/injection, schedule: Q01DX009 (ip), vehicle: Klucel (hydroxypropylcellulose) (HPC) 86 % of control | [15] 98 % of control | dose: 400.0 mg/kg/injection, schedule: Q01DX009 (ip), vehicle: Klucel (hydroxypropylcellulose) (HPC) 89 % of control | [16] 103 % of control

Cc1cc(=O)n(CC(=O)O)c2ccccc12
inactive: [1] 88 % of control | [3] 100 % of control | [2] 90 % of control | [5] 100 % of control | [7] 98 % of control

COc1cc(C(C)=O)cc([N+](=O)[O-])c1O
inactive: [9] 107 % of control | [10] 105 % of control

O=[N+]([O-])c1ccc(O)c(/C=N/N2CCCCC2)c1
inactive: [11] 94 % of control | [12] 97 % of control | [13] 108 % of control

O=C(O)COc1c(Cl)cc(Cl)cc1Cl
inactive: [14] 100 % of control | [15] 100 % of control | [16] 96 % of control

N#C/C(=C\C1CCCCC1Cl)C1CCC([N+](=O)[O-])CC1 (stereo not drawn)
inactive: dose: 50.0 mg/kg/injection, schedule: Q04DX002 (ip), vehicle: saline with Tween-80 91 % of control | [11] 91 % of control | [12] 97 % of control
